Laboratory results as given in patent US11389423B2, “Pharmaceutical composition, excipient for the composition and use of the composition” (priority 2018, dated 2022).

Assays:
male rabbits [1] = test: Effects on respiratory system, respiratory rate; type: in vivo, New Zealand rabbits; details: one hour after treatment
Protocol: (§1) Male New Zealand rabbits (n=6 per group) were used for pharmacological safety tests. All tests were performed orally (route recommended for humans) and the investigated parameters were determined after a single administration of CBD-SINT. CBD-SINT doses were determined by allometric extrapolation from the average dose used in human patients (25 mg/kg).
(§2) The dose of 51 mg/kg was used as the intermediate dose, stipulating a higher and a lower dose. Three dose ranges were used according to the Guide for Conducting Non-Clinical Toxicology and Pharmacological Safety Studies Necessary for Drug Development (ANVISA, 2013; Version 1.2). Thus, the doses used were 17, 51 and 170 mg/kg of CBD-SINT.
After 6-h fasting, three doses of CBD-SINT (17, 51 and 170 mg/kg) were administered to different groups of male rabbits by gavage. Placebo was administered to the control group (1 mL/kg). One hour after treatments, all rabbits remained conscious in the prone position. The respiratory rate was determined using a Kofranyi-Michaelis respirometer (Murphy, 2002). For arterial blood gas analysis, arterial blood samples were taken from the central ear artery and immediately processed. All parameters below were determined on a Cobas b 221 multiparametric blood gas analyzer (Roche Diagnostics, Rotkreuz, Switzerland): pH, PCO2 (mm Hg), PO2 (mm Hg), SO2(%), Htc (%), tHb (g/dL), Na+ (mmol/L), K+ (mmol/L), Ca2+ (mmol/L), Cl− (mmol/L), glucose (mg/dL), lactate (mmol/L), O2Hb (%), HHb (%), P50 (mm Hg), H+ (nmol/L), BE (nmol/L), BEecf (nmol/L), BB (mmol/L), cHCO3 (mmol/L), ctCO2 (B) (mmol/L), ctCO2 (P) (mmol/L) and ctO2 (% by volume).

male rabbits [2] = test: Electrocardiography; type: in vivo, New Zealand rabbits; details: male rabbits, 17, 51 and 170 mg/kg by gavage, one hour after treatment
Protocol: as §1, §2
a) Electrocardiography, wherein after a 6-h fasting, three doses of CBD (17, 51 and 170 mg/kg) were administered to different groups of male rabbits by gavage. Placebo was administered to the control group (1 mL/kg). One hour after treatments, all rabbits remained conscious in the supine position. Four electrodes (RL, RA, LL, and LA) were placed in the folds of both elbows and both knees. The V1 electrode was positioned in the 4th intercostal space to the right of the sternum. […] An acclimatization time of 5 min was waited, and then the cardiographic electric waves were recorded for 5 min. The electrocardiography was recorded with an ECG recorder (WinCardio, Micromed, Brasilia, Brazil).

Structure (SMILES): C=C(C)[C@@H]1CCC(C)=C[C@H]1c1c(O)cc(CCCCC)cc1O [CBD-SINT, Cannabidiol]
- respiratory rate (male rabbits [1]; 17 mg/kg by gavage): 55±6.48 bpm
- respiratory rate (male rabbits [1]; 51 mg/kg by gavage): 57±5.43 bpm
- respiratory rate (male rabbits [1]; 170 mg/kg by gavage): 56±5.66 bpm
- PR, QRS or QT segments (male rabbits [2]): no significant changes
- amplitudes of P, R or T waves vs placebo (male rabbits [2]): no changes
